Measured values: ChEMBL document CHEMBL1154885, “Heat shock protein 90: inhibitors in clinical trials” (J Med Chem, 2010)

Experiments:
[1] = molecular target: Heat shock protein HSP 90-beta (Homo sapiens, UniProt P08238)
Description: Inhibition of HSP90-mediated client protein HER2 degradation

[2] = Clearance in tumor of mouse bearing human WM266.4 cells at 50 mg/kg, ip; assay type: ADME, organism-based, Neoplasm; design: dose 50 mg/kg, route intraperitoneal; conditions: in vivo
[3] = Cmax in plasma of mouse bearing human WM266.4 cells at 50 mg/kg, ip; assay type: ADME, organism-based; design: dose 50 mg/kg, route intraperitoneal
[4] = test system: Mus musculus; assay: Toxicity in mouse assessed as body weight loss at 70 mg/kg, ip after 8 days; assay type: organism-based; design: dose 70 mg/kg, route intraperitoneal; conditions: in vivo, 192 h
[5] = Antitumor activity against human U87MG cells xenografted in mouse assessed as tumor regression at 50 mg/kg, ip; assay type: functional, U-87MG ATCC; conditions: route intraperitoneal
[6] = Apparent volume of distribution in tumor of mouse bearing human WM266.4 cells at 50 mg/kg, ip; assay type: ADME, organism-based, Neoplasm; design: dose 50 mg/kg, route intraperitoneal; conditions: in vivo
[7] = Toxicity in mouse assessed as maximum tolerated dose; assay type: organism-based; conditions: in vivo
[8] = AUC in plasma of mouse bearing human WM266.4 cells at 50 mg/kg, iv; assay type: ADME, organism-based; design: dose 50 mg/kg, route intravenous
[9] = Half life in tumor of mouse bearing human WM266.4 cells at 50 mg/kg, iv; assay type: ADME, organism-based, Neoplasm; design: dose 50 mg/kg, route intravenous
[10] = Half life in tumor of mouse bearing human WM266.4 cells at 50 mg/kg, ip; assay type: ADME, organism-based, Neoplasm; design: dose 50 mg/kg, route intraperitoneal
[11] = test system: Plasma; assay: Apparent volume of distribution in plasma of mouse bearing human WM266.4 cells at 50 mg/kg, ip; assay type: ADME, organism-based; design: dose 50 mg/kg, route intraperitoneal; conditions: in vivo
[12] = Cmax in plasma of mouse bearing human WM266.4 cells at 50 mg/kg, iv; assay type: ADME, organism-based; design: dose 50 mg/kg, route intravenous
[13] = Half life in plasma of mouse bearing human WM266.4 cells at 50 mg/kg, ip; assay type: ADME, organism-based; design: dose 50 mg/kg, route intraperitoneal
[14] = test system: Plasma; assay: Half life in plasma of mouse bearing human WM266.4 cells at 50 mg/kg, iv; assay type: ADME, organism-based; design: dose 50 mg/kg, route intravenous; conditions: in vivo
[15] = test system: BT-474; assay: Antitumor activity against human BT474 cells xenografted in mouse at 50 mg/kg, ip; assay type: functional; conditions: BT-474, ip, route intraperitoneal, read-out: TGI
[16] = AUC in tumor of mouse bearing human WM266.4 cells at 50 mg/kg, iv; assay type: ADME, organism-based, Neoplasm; design: dose 50 mg/kg, route intravenous
[17] = Apparent volume of distribution in tumor of mouse bearing human WM266.4 cells at 50 mg/kg, iv; assay type: ADME, organism-based, Neoplasm; design: dose 50 mg/kg, route intravenous; conditions: read-out: Vz
[18] = Cmax in tumor of mouse bearing human WM266.4 cells at 50 mg/kg, ip; assay type: ADME, organism-based, Neoplasm; design: dose 50 mg/kg, route intraperitoneal; conditions: read-out: Cmax_tumor
[19] = Clearance in plasma of mouse bearing human WM266.4 cells at 50 mg/kg, ip; assay type: ADME, organism-based; design: dose 50 mg/kg, route intraperitoneal
[20] = Clearance in tumor of mouse bearing human WM266.4 cells at 50 mg/kg, iv; assay type: ADME, organism-based, Neoplasm; design: dose 50 mg/kg, route intravenous; conditions: in vivo
[21] = test system: Plasma; assay: Apparent volume of distribution in plasma of mouse bearing human WM266.4 cells at 50 mg/kg, iv; assay type: ADME, organism-based; design: dose 50 mg/kg, route intravenous; conditions: in vivo
[22] = test system: Mus musculus; assay: Hepatic blood flow in mouse bearing human WM266.4 cells at 50 mg/kg, ip; assay type: ADME, organism-based, Liver; design: dose 50 mg/kg, route intraperitoneal; conditions: in vivo
[23] = Drug level in tumor of mouse bearing human WM266.4 cells at 50 mg/kg, ip administered once daily for 5 days measured after 24 hrs after final dose; assay type: ADME, organism-based, Neoplasm; design: dose 50 mg/kg, route intraperitoneal; conditions: read-out: Drug uptake
[24] = Cmax in tumor of mouse bearing human WM266.4 cells at 50 mg/kg, iv; assay type: ADME, organism-based, Neoplasm; design: dose 50 mg/kg, route intravenous; conditions: read-out: Cmax_tumor
[25] = AUC in plasma of mouse bearing human WM266.4 cells at 50 mg/kg, ip; assay type: ADME, organism-based; design: dose 50 mg/kg, route intraperitoneal
[26] = test system: Plasma; assay: Clearance in plasma of mouse bearing human WM266.4 cells at 50 mg/kg, iv; assay type: ADME, organism-based; design: dose 50 mg/kg, route intravenous; conditions: in vivo
[27] = Metabolic stability in mouse liver microsomes assessed as drug remaining after 30 mins; assay type: ADME, Microsome; conditions: read-out: Stability
[28] = Metabolic stability in human liver microsomes assessed as drug remaining after 30 mins; assay type: ADME, Microsome; conditions: read-out: Stability
[29] = AUC in tumor of mouse bearing human WM266.4 cells at 50 mg/kg, ip; assay type: ADME, organism-based, Neoplasm; design: dose 50 mg/kg, route intraperitoneal

Sequence of Heat shock protein HSP 90-beta (P08238 whole entry): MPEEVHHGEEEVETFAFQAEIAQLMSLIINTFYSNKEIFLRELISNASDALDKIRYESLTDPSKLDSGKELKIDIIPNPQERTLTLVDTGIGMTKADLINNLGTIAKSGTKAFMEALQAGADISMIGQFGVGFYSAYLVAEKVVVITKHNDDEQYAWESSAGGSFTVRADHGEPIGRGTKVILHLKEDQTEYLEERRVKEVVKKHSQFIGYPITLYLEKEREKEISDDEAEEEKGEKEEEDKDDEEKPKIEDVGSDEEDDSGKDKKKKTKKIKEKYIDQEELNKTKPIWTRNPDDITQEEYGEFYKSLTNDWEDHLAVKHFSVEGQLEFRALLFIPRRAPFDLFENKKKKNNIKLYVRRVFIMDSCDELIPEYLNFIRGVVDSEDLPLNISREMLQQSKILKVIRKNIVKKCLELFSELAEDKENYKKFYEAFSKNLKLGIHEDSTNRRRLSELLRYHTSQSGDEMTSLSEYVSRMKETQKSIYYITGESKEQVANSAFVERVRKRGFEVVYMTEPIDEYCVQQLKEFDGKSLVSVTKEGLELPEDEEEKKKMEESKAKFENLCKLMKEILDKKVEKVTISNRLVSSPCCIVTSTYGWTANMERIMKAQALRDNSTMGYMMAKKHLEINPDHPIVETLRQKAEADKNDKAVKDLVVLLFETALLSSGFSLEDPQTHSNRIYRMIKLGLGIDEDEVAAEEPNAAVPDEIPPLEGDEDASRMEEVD

Compound `CCCCn1c(Cc2ccc(OC)c(OC)c2OC)nc2c(N)ncnc21` has an Activity [1] of 40000 nM.
Compound `CCNC(=O)c1noc(-c2cc(C(C)C)c(O)cc2O)c1-c1ccc(CN2CCOCC2)cc1` [LUMINESPIB] has a CL [2] of 0.41 L/h, a Cmax [3] of 53 µM and an Activity [4] of 10%. The Activity [5] was 58%, the Vz [6] was 0.883 L and the MTD [7] was 50 mg/kg. It also gave an AUC [8] of 15 µM·h, a half-life [9] of 15 h and a half-life [10] of 15 h. For the same compound, the Vz [11] was 0.077 L, the Cmax [12] was 49 µM and the half-life [13] was 1 h. The t1/2 [14] was 1 h, the inhibition in vivo at 50 mg/kg [15] was 79% and the AUC [16] was 70 µM·h. It also gave a Vd [17] of 0.44 L, a Cmax [18] of 6 µM and a CL/F [19] of 1.37 mL/min. For the same compound, the CL [20] was 0.02 L/h, the Vz [21] was 0.875 L and the LBF [22] was 108 mL/h. It also gave a concentration at 24 h [23] of 6.8 µM, a Cmax [24] of 14 µM and an AUC [25] of 26 µM·h. For the same compound, the CL [26] was 0.143 L/h, the remaining at 0.5 h [27] was 31% and the remaining at 0.5 h [28] was 41%. For the same compound, the AUC [29] was 36 µM·h.
Work on `CCOP(=O)(CCn1c(Sc2nc3cccc(Cl)c3s2)nc2c(N)ncnc21)OCC` yielded an Activity [1] of 30 nM.
Work on `COc1ccc(I)c(Sc2nc3c(N)ncnc3n2CCNCC(C)(C)C)c1` yielded an Activity [1] of 30 nM.
`C#CCCCn1c(Sc2cc3c(cc2Br)OCO3)nc2c(N)ncnc21` showed an Activity [1] of 30 nM.
